The text below walks through data of patent US9834544B2, “Sweet flavor modifier” (SENOMYX, INC., priority 2011, dated 2017).

For one data set, the target named is T1, hT1R2/R3 (Homo sapiens, UniProt Q7RTX0+Q8TE23).
T1 construct: expressed in transfected cells; host or cells: 'hT1R2/R3-mammalian Gal5 cells'
T1 sequence (Q8TE23 20-839): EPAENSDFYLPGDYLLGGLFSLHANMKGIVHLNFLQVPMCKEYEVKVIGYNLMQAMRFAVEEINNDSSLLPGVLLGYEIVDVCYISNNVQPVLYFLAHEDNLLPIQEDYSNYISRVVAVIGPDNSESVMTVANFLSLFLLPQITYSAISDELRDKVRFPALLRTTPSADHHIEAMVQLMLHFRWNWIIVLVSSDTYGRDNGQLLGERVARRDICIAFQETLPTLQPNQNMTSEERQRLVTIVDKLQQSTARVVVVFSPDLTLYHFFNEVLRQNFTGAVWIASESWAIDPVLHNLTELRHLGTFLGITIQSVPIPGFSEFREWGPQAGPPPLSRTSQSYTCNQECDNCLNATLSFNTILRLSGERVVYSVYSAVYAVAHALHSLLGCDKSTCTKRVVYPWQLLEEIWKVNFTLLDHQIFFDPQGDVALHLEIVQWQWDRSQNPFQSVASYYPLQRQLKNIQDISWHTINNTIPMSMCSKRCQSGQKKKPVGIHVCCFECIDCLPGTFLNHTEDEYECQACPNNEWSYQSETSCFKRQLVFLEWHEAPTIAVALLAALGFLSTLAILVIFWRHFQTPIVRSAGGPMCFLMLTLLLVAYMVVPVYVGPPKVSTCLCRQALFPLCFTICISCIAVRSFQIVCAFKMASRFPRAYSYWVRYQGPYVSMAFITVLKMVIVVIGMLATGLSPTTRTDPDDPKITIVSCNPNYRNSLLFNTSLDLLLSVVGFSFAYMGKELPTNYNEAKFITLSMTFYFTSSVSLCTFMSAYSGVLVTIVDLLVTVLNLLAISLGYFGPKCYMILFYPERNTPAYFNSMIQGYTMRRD
T1 sequence (Q7RTX0 21-852): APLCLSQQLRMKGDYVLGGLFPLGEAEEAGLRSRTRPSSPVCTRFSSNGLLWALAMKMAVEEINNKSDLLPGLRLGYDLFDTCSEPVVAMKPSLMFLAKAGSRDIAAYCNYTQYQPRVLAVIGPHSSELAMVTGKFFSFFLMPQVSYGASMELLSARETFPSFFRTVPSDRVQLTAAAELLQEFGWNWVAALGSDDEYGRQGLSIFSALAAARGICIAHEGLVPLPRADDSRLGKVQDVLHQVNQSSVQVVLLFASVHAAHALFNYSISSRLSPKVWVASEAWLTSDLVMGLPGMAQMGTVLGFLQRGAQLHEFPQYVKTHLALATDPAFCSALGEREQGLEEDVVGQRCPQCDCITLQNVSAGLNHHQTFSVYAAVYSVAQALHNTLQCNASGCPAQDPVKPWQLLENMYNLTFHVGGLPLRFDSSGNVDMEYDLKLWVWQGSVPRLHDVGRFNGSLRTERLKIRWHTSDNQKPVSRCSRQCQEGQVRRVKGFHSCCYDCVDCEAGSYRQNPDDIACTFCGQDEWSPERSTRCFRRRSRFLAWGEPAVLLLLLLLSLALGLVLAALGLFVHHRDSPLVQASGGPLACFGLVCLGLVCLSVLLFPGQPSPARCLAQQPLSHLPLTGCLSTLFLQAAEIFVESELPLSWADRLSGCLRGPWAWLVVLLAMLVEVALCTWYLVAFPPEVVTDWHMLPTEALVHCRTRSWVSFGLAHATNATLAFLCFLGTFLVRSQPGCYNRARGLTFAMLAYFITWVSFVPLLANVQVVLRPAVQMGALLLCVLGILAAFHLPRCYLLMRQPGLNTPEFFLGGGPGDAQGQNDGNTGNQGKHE
The data set is described as follows: Screening for sweet enhancers: FLIPR calcium assay in hT1R2/R3-mammalian Gal5 cells, leftward shift of sweetener EC50. Type of data set: cell-based. The note with it: compound at 10 μM; sweetener sucralose. On the procedure: hT1R2/R3-mammalian Gal5 cells were seeded in 384-well-clear bottom plates (Fisher) at a density of ˜32,000 cells/well and grown overnight. On the day of the experiment, hT1R2/R3-mammalian Gal5 were loaded with the calcium indicator Fluo3AM ([…]) (Invitrogen, Carlsbad, Calif.) in D-PBS (Invitrogen, Carlsbad, Calif.) using a Multidrop. Cells were incubated for 1 hour at room temperature and excess dye was washed out with D-PBS using an EMBLA cell washer (Molecular Devices, Sunnyvale, Calif.), leaving a residual volume of […]. Sweeteners and test compounds were prepared at 4× final concentration and mixed 1:1 in a 384-well Greiner plate (bringing the sweeteners and test compounds concentrations down to 2× final concentration). After 30 minutes of rest time at room temperature, Fluo3AM-loaded cell plates, and the sweetener/compound plate mixture were loaded into a Fluorometric Imaging Plate Reader (FLIPR) (Molecular Devices, Sunnyvale, Calif.). Imaging was performed using a 480 nm excitation and a 535 emission and was initiated with the acquisition of the baseline fluorescence for a period of 7 seconds. Then, the cells were stimulated on line with addition of […] stimuli/well. Subsequent images were acquired every other second for a period of 2 minutes. Raw fluorescence counts were then normalized in each well (using custom made data import software) by calculating delta F/f values (maximum fluorescent count obtained after stimulation−minimal fluorescent count obtained before stimulation/minimal fluorescent count obtained before stimulation). EC50s were determined using a non-linear regression algorithm (GraphPad PRISM, San Diego, Calif.), where the Hill slope, bottom asymptotes and top asymptotes were allow to vary. Enhancement properties of test compounds were quantified by determining the magnitude of the leftward shift in the sweeteners EC50 values (or an EC50 ratio): the value of the EC50 measured in the absence of the enhancer divided by the value of the EC50 measured in the presence of the enhancer).
The present compounds have been tested and shown sweet taste enhancing activities for sucrose, sucralose, and/or fructose as shown in Table E (EC50 ratio for sucrose at about 10 μM), Table F (EC50 ratio for sucralose at about 10 μM), and Table H (EC50 ratio for fructose at about 50 µM). […] The compounds listed in Tables E, F and H are Examples described above. For example, Compound C6 listed in Tables E and F is Example 18 described above.
On to `Cc1nc2cccc(OCC(C)(C)C(=O)NCC(C)C)c2c(N)c1C(=O)O` [Compound C6, 4-amino-5-(3-(isobutylamino)-2,2-dimethyl-3-oxopropoxy)-2-methylquino-line-3-carboxylic acid], for which the “EC50 Ratio, Sucralose Enhancement” value came out at 3.8.

On to `Cc1nc2cccc(OCC(C)(C)NC(=O)CC(C)C)c2c(N)c1C(=O)O` [Compound O5], for which the “EC50 Ratio, Sucralose Enhancement” value worked out at 4.3.

Staying with this data set, now noted: compound at 10 μM; sweetener sucrose.
On to `Cc1nc2cccc(OCC(C)(C)C(=O)NCC(C)C)c2c(N)c1C(=O)O` [Compound C6, 4-amino-5-(3-(isobutylamino)-2,2-dimethyl-3-oxopropoxy)-2-methylquino-line-3-carboxylic acid], for which the “EC50 Ratio, Sucrose Enhancement” value is given as 11.0.

With `Cc1nc2cccc(OCC(C)(C)NC(=O)CC(C)C)c2c(N)c1C(=O)O` [Compound O5], the “EC50 Ratio, Sucrose Enhancement” value is 6.0.

Staying with this data set, now noted: compound at 50 μM; sweetener fructose.
On to `Cc1nc2cccc(OCC(C)(C)NC(=O)CC(C)C)c2c(N)c1C(=O)O` [Compound O5], for which the “EC50 Ratio, Fructose Enhancement” value was 2.6.

Test system in a further data set: not given
Assay: not given
Conditions: not given
The term melting point denotes the temperature, or range, at which the solid turns liquid. `CCCCNC(=O)C(C)(C)COc1cccc2nc(C)c(C(=O)O)c(N)c12` [Example 15, 4-amino-5-(3-(butylamino)-2,2-dimethyl-3-oxopropoxy)-2-methylquinoline-3-carboxylic acid] yielded a melting point of 195 to 199 °C.

`CCC(CC)NC(=O)C(C)(C)COc1cccc2nc(C)c(C(=O)O)c(N)c12` [Example 16, 4-amino-5-(2,2-dimethyl-3-oxo-3-(pentan-3-ylamino)propoxy)-2-methyl-quinoline-3-carboxylic acid] returned a melting point of 172 to 174 °C.

Consider `Cc1nc2cccc(O[C@H]3CC[C@H](NC(=O)C(C)C)CC3)c2c(N)c1C(=O)O` [Example 4, 4-amino-5-(((1,4)-trans-4-isobutyramidocyclohexyl)oxy)-2-methylquinoline-3-carboxylic acid], for which the melting point lay within 183 to 185 °C.

As to `CCNC(=O)C(C)(C)COc1cccc2nc(C)c(C(=O)O)c(N)c12` [Example 12, 4-amino-5-(3-(ethylamino)-2,2-dimethyl-3-oxopropoxy)-2-methylquinoline-3-carboxylic acid], the melting point lay within 168 to 170 °C.

`Cc1nc2cccc(OCC(C)(C)C(=O)NCC3CC3)c2c(N)c1C(=O)O` [Example 14, 4-amino-5-(3-((cyclopropylmethyl)amino)-2,2-dimethyl-3-oxopropoxy)-2-methylquinoline-3-carboxylic acid] had a melting point of 177 to 179 °C.

`Cc1nc2cccc(OCC(C)(C)C(=O)NCC(C)C)c2c(N)c1C(=O)O` [Compound C6, 4-amino-5-(3-(isobutylamino)-2,2-dimethyl-3-oxopropoxy)-2-methylquino-line-3-carboxylic acid] showed a melting point of 176 to 179 °C.

In turn, `CNC(=O)[C@H]1CC[C@H](Oc2cccc3nc(C)c(C(=O)O)c(N)c23)CC1` [Example 22, 4-amino-2-methyl-5-(((1,4)-trans-4-(methylcarbamoyl)cyclohexyl)oxy)quinoline-3-carboxylic acid] came in with a melting point of 195 to 198 °C.

Take `Cc1nc2cccc(OCC(C)(C)NC(=O)CN3CCOCC3)c2c(N)c1C(=O)O` [Example 17, 4-amino-2-methyl-5-(2-methyl-2-(2-morpholinoacetamido)propoxy)quinoline-3-carboxylic acid]: the melting point fell in the range of 173 to 175 °C.

Compound `Cc1nc2cccc(OCC(C)(C)NC(=O)CC(C)C)c2c(N)c1C(=O)O` [Example 5, 4-amino-2-methyl-5-(2-methyl-2-(3-methylbutanamido)propoxy)quinoline-3-carboxylic acid] gave a melting point of 195 to 198 °C.

`Cc1nc2cccc(OCC(C)(C)NC(=O)CC3CCOCC3)c2c(N)c1C(=O)O` [Example 13, 4-amino-2-methyl-5-(2-methyl-2-(2-(tetrahydro-2H-pyran-4-yl)acetamido)-propoxy)quinoline-3-carboxylic acid] registered a melting point of 175 to 178 °C.

With `Cc1nc2cccc(OCC(C)(C)C(=O)NCC3CCC3)c2c(N)c1C(=O)O` [Example 19, 4-amino-5-(3-((cyclobutylmethyl)amino)-2,2-dimethyl-3-oxopropoxy)-2-methylquinoline-3-carboxylic acid], the melting point lay in the range of 170 to 172 °C.

With `CCC(=O)N1CCC(COc2cccc3nc(C)c(C(=O)O)c(N)c23)CC1` [Example 21, 4-amino-2-methyl-5-((1-propionylpiperidin-4-yl)methoxy)quinoline-3-carboxylic acid], the melting point lay in the range of 168 to 170 °C.

For the compound `Cc1nc2cccc(OCC(C)(C)C(=O)NC3CC3)c2c(N)c1C(=O)O` [Example 2, 4-amino-5-(3-(cyclopropylamino)-2,2-dimethyl-3-oxopropoxy)-2-methyl-quinoline-3-carboxylic acid], the melting point was 227 to 229 °C.

`Cc1nc2cccc(OCC(C)(C)C(=O)NC3CCC3)c2c(N)c1C(=O)O` [Example 3, 4-amino-5-(3-(cyclobutylamino)-2,2-dimethyl-3-oxopropoxy)-2-methylquino-line-3-carboxylic acid]: the melting point lay in the range of 183 to 187 °C.

Take `Cc1nc2cccc(OCC(C)(C)NC(=O)C3CCOCC3)c2c(N)c1C(=O)O` [Example 7, 4-amino-2-methyl-5-(2-methyl-2-(tetrahydro-2H-pyran-4-carboxamido)-propoxy)quinoline-3-carboxylic acid]: the melting point lay within 170 to 173 °C.

The compound `Cc1nc2cccc(OCC(C)(C)NC(=O)C3CCC3)c2c(N)c1C(=O)O` [Example 9, 4-amino-5-(2-(cyclobutanecarboxamido)-2-methylpropoxy)-2-methylquino-line-3-carboxylic acid] had a melting point of 186 to 190 °C.

`Cc1nc2cccc(OCC(C)(C)NC(=O)C(C)C)c2c(N)c1C(=O)O` [Example 6, 4-amino-5-(2-isobutyramido-2-methylpropoxy)-2-methylquinoline-3-carboxylic acid]: the melting point is 184 to 186 °C.

Turning to `CCC(=O)NC(C)(C)COc1cccc2nc(C)c(C(=O)O)c(N)c12` [Example 8, 4-amino-2-methyl-5-(2-methyl-2-propionamidopropoxy)quinoline-3-carboxylic acid], the melting point lay within 189 to 193 °C.

`Cc1nc2cccc(OC3CCN(C(=O)C(C)C)CC3)c2c(N)c1C(=O)O` [Example 10, 4-amino-5-((1-isobutyrylpiperidin-4-yl)oxy)-2-methylquinoline-3-carboxylic acid] displayed a melting point of 184 to 186 °C.
